Among the data in US20250295656A1, “COMBINATION OF LURBINECTEDIN AND IMMUNE CHECKPOINT INHIBITORS” (priority 2020, published 2025) are overall survival and tumour growth values, retold here.

This assay concerns MCA205 tumours. The assay is described as follows: Established MCA205 tumours in immunocompetent mice. As to conditions: immunocompetent C57BL/6, 0.18 mg/kg i.v. day 1, 7 and 14. It counts as in vivo, immunocompetent C57BL/6 mice. As for the experimental part:
Live MCA205 cells were injected subcutaneously (s.c.) into immunocompetent C57BL/6 mice or immunodeficient nu/nu mice as depicted in the scheme in (a) When tumours became palpable, mice were intravenously (i.v.) injected with […] lurbinectedin (on day 1, 7 and 14). Tumour growth was assessed regularly for the following 30 days. Data is depicted as tumour growth curves (b,d) and overall survival plots (c,e). Data were analyzed with TumGrowth.
In order to assess the capacity of lurbinectedin to stimulate anticancer immunity in a monotherapeutic approach and to convert tumour cells into a therapeutic vaccine we exposed murine fibrosarcoma cells to the drug in vitro (in conditions previously established to induce a sufficient amplitude of cell death) and then injected the dying cancer cells into syngeneic immunocompetent mice. […] Next we evaluated the effect of lurbinectedin on established cancers growing on immunocompetent or immunodeficient mice. […]
Six- to eight-week-old female wild-type C57BL/6 and nu/nu mice were obtained from Envigo France (Huntingdon, UK) and were kept in the animal facility at the Gustave Roussy Campus Cancer in a specific pathogen-free and temperature-controlled environment with 12 h day, 12 h night cycles and received food and water ad libitum. […] Animals were monitored and tumour growth documented regularly until end-points were reached. […]

With `COc1ccc2[nH]c3c(c2c1)CCN[C@]31CS[C@@H]2c3c(OC(C)=O)c(C)c4c(c3[C@H](COC1=O)N1[C@@H]2[C@H]2c3c(cc(C)c(OC)c3O)C[C@@H]([C@@H]1O)N2C)OCO4` [lurbinectedin], the overall survival entry is given as “increased”. For the setting “vs control animals, p<0.0001”, the tumour growth result is “significantly reduced”.
